Experimental data taken from US5336687A, “Inhibition of bone loss by 4-aryloxy-5-hydroxy-2(5H)-furanones” (American Home Products Corporation, priority 1993, dated 1994).
Values after ≈ are worked out from the molar mass of the structure shown.

Tests used:
Rat Limb Bone = experiment: 45Ca Release from Rat Limb Bone (inhibition of bone resorption); assay type: cell-based, rat (Sprague-Dawley CD); conditions: for minimal effective concentration: concentration required to inhibit bone resorption, from regression analysis, read-out: MIC, Inhibition of Bone Resorption (45Ca release)
Description: Timed pregnant Sprague-Dawley CD rats (Charles River) are administered 100 uCi^45 CaCl2 (NEN calcium-45 NEZ-013) in 100 μl of 0.9% saline, subcutaneously, on day 18 of gestation. The rats are sacrificed the following day by asphyxiation. […] The modified BGJb media is obtained without salts glucose or bicarbonate and is supplemented before use with 0.1 mM MgCl2, 1.25 mM CaCl2, 5.3 mM KCl, 0.7 mM MgSO4, 130 mM NaCl, 1.0 mM NaH2 PO4, 1 g/1 glucose, 50 mg/1 Na acetate and 100 U/ml penicillin G. The medium is sterilized by passage through a […] filter (Nalge). Under a dissecting microscope, the bones are gently cleaned of adherent tissue and the cartilagenous ends removed. Step (2): Incubation and Drug Treatment The midshafts are placed, individually, on 3×3 mm squares of filter paper (Gelman […] filters; […] pore size) which rest on stainless steel screens in wells of 24-well culture plates containing 0.5 ml of preincubation medium. The preincubation medium is brought to 37 deg. C. prior to transfer of bones. The preincubation medium consists of the modified BGJb medium (with salts and glucose as above), pH 7.3, containing 29 mM NaHCO3. After incubation for 18-24 hours at 37° C. in 5% CO2, the bones are transferred on their screen/filter paper supports to new plates containing, in a total volume of 0.5 ml/well at 37° C., the test compound diluted in preincubation medium supplemented with 15% heat inactivated horse serum (Gibco No. 230-6050), pH 7.3, with or without a bone resorption stimulating agent (parathyroid hormone [PTH]). For compounds that require nonaqueous solvents, dilutions are made from the appropriate stock solution with medium. In these instances, basal and bone resorption stimulated controls exposed to an equivalent concentration of the vehicle are included. An additional group of bones that have been subjected to boiling for 1 hour are used to establish background, non cell mediated, exchange of ^45 Ca. The right ulna and radius from each fetus are used. Both bones are subjected to the same treatment and each treatment group consists of bones from 4 or more fetuses. Treatments are randomly assigned using a preclinical statistics program (PS-ALLOC). After a 48 hour incubation at 37° C. in 5% CO2, the bones are removed from the medium and extracted in 0.5 ml of 0.1N HCl for 1 or more days. Duplicate 150 μl aliquots of the incubation medium and the bone extract are analyzed for ^45 Ca radioactivity in 5 ml of liquid scintillation cocktail. The percentage of bone ^45 Ca released into the medium is determined as follows: [formula] Results are normally expressed as the ratio of the percent ^45 Ca release of the experimental group verses the appropriate vehicle control. […] A regression analysis is calculated for dose response and the concentration of test compound required to inhibit bone resorption (^45 Ca release) is reported (Table II).

[1] = cited from earlier work
Rat Femur = experiment: Immobilization Dependent Bone Loss in the Rat Femur (ovariectomized rats, unilateral sciatic neurotomy); assay type: in vivo; conditions: 20 mg/kg, i.p., 5×/week for 4 weeks
Description: This assay was performed according to the procedure described by Kharode Y.P., Kowal D., O'Rourke S., and Hayward M., "Effect of Time and Pharmacologic Intervention on Bone Mineralization," J. Bone Min. Res. 2, Supp.1. (1987).
Bone mass was determined in the contralateral femora from ovariectomized rats which had been subjected to unilateral sciatic nerve severance. After sciatic neurotomy, the rats were treated with test compound for 2 to 4 weeks. The rats were euthanized, the femora were excised, debrided of soft tissue, and then dehydrated. After drying, the mass of each pair of femora was determined by weighing. The % change in bone mass is calculated using the formula: [formula]

[2] = Rattus norvegicus, 48 hour incubation at 37° C.

Molecule: O=C1C=C(Oc2ccc(C(F)(F)F)cc2)C(O)O1 (stereo not drawn) [Example 5, 4-(4-Trifluoromethylphenoxy)-5-hydroxy-2(5H)-furanone]
- IC50 (Rat Limb Bone; Rattus norvegicus, 48 hour incubation at 37° C., printed in the MIC (μg/mL) column): 3.5 µg/mL (≈ 13.5 µM)

Molecule: Estrogen
- side effects ([1]; in vivo): increased risk of certain types of cancers

Molecule: O=C1C=C(Oc2ccc(-c3ccccc3)cc2)C(O)O1 (stereo not drawn) [Example 1, 4-([1,1'-Biphenyl]-4-yloxy)-5-hydroxy-2(5H)-furanone]
- % Change in Bone Mass (Rat Femur): 4.8 ± 0.6%
- minimal effective concentration (Rat Limb Bone; [2]): 10 µg/mL

Molecule: [F-].[Na+] [sodium fluoride]
- bone growth quality ([1]; in vivo): irregular
- fracture incidence ([1]; in vivo): does not appear to be significantly lowered
- mitogenic activity for osteoblasts ([1]; in vivo): mitogenic for osteoblasts
- bone density increase ([1]; may result in increase up to 8-10% a year): 8-10 % a year

Molecule: O=C1C=C(Oc2ccc(Sc3ccccc3)cc2)C(O)O1 (stereo not drawn) [Example 7, 4-[4-thiophenyl-1-phenoxy]-5-hydroxy-2(5H)-furanone]
- minimal effective concentration (Rat Limb Bone; [2]): 10 µg/mL

Molecule: O=C1C=C(Oc2ccc(C3CCCC3)cc2)C(O)O1 (stereo not drawn) [Example 4, 4-(4-Cyclopentylphenoxy)-5-hydroxy-2(5H)-furanone]
- minimal effective concentration (Rat Limb Bone; [2]): 1 µg/mL

Molecule: CCCCCCCCc1ccc(OC2=CC(=O)OC2O)cc1 (stereo not drawn) [Example 3, 4-(4-Octylphenoxy)-5-hydroxy-2(5H)-furanone]
- minimal effective concentration (Rat Limb Bone; [2]): 10 µg/mL

B1: PTH: bone resorption stimulating agent (parathyroid hormone [PTH]) (protein, UniProt P01270 32-115, looked up)
Parathyroid hormone: SVSEIQLMHNLGKHLNSMERVEWLRKKLQDVHNFVALGAPLAPRDAGSQRPRKKEDNVLVESHEKSLGEADKADVNVLTKAKSQ
- ratio of the percent 45Ca release vs vehicle control (basal = 1.00) (Rat Limb Bone; PTH 10^-7 M, bone resorption agent, 'commonly'): 1.3-2.0
